Data as given in patent US20050065202A1, “Use of sulphonamide derivatives for the manufacture of a medicament for the prophylaxis and/or treatment of disorders of food ingestion” (priority 2003, published 2005).
Counter-ions that a name gives are not always drawn.

Key:
[1] = molecular target: T1, 5HT6-human recombinant receptor (Homo sapiens, UniProt P50406); experiment: Binding to serotonin receptor 5HT6 ([3H]-LSD displacement, HEK-293 cell membranes); conditions: for inhibition at 1 µM: read-out: % Inhibition 10^−6 M
T1 construct: purchased Receptor Biology; host or cells: HEK-293 cell membranes
T1 sequence (P50406 whole entry): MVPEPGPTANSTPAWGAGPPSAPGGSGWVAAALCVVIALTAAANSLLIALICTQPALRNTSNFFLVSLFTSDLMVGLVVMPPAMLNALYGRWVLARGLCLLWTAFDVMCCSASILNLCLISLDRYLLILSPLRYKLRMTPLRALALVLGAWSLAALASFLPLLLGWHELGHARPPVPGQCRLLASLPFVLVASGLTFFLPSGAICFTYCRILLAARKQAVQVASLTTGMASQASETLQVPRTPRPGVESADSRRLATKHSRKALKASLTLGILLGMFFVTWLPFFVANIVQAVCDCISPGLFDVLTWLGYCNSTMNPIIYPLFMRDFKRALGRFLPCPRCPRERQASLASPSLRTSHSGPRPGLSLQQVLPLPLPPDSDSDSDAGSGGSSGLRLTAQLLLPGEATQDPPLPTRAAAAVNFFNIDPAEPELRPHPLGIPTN
Method: Binding to Serotonin Receptor 5HT6
The respective part of the literature description is hereby incorporated by reference and forms part of the disclosure. […] Tests were made in triplicate.
The binding of the inventively used sulphonamide derivatives of general formula (I) was determined as described above.

Row | SMILES | melting point | Ki [1] [nM] | inhibition at 1 µM [1] [%]
1 | CCN(CC)CCc1c[nH]c2ccc(NS(=O)(=O)c3cccc4ccccc34)cc12 (as salt: HCl) [Example 3, Hydrochloride N-[3-(2-diethylaminoethyl)-1H-indol-5-yl]naphthalene-1-sulphonamide] | 255 to 257 °C | – | –
2 | CN1CCC(c2c[nH]c3ccc(NS(=O)(=O)c4cccc5ccccc45)cc23)CC1 (as salt: HCl) [Example 13, N-[3-(1-methylpiperidin-4-yl)-1H-indol-5-yl]naphthalene-1-sulphonamide hydrochloride] | 212 °C (dec.) | – | –
3 | CCN(CC)CCc1c[nH]c2ccc(NS(=O)(=O)c3sc4ccc(Cl)cc4c3C)cc12 [Example 1, N-[3-(2-diethylaminoethyl)-1H-indol-5-yl]-5-chloro-3-methylbenzo[b]thiophene-2-sulphonamide] | 170 to 173 °C | 0.28 | 98.1 ± 4
4 | CCN(CC)CCc1c[nH]c2ccc(NS(=O)(=O)c3cccc4ccccc34)cc12 [Example 3, Hydrochloride N-[3-(2-diethylaminoethyl)-1H-indol-5-yl]naphthalene-1-sulphonamide] | – | – | 96.6 ± 5.2
5 | CCN(CC)CCc1c[nH]c2ccc(NS(=O)(=O)c3cc(Cl)cc(Cl)c3)cc12 [Example 4, N-[3-(2-diethylaminoethyl)-1H-indol-5-yl]-3,5-dichlorobenzenesulphonamide] | 168 to 170 °C | – | 96.2 ± 0.6
6 | CCN(CC)CCc1c[nH]c2ccc(NS(=O)(=O)c3ccc(-c4ccccc4)cc3)cc12 [Example 5, N-[3-(2-diethylaminoethyl)-1H-indol-5-yl]-4-phenylbenzenesulphonamide] | 161 to 163 °C | – | 101.2 ± 0.1
7 | CCN(CC)CCc1c[nH]c2ccc(NS(=O)(=O)c3ccc(Cl)s3)cc12 [Example 6, N-[3-(2-diethylaminoethyl)-1H-indol-5-yl]-5-chlorothiophene-2-sulphonamide] | 180 to 181 °C | 8.7 | 97.6 ± 1.8
8 | Cc1c(S(=O)(=O)Nc2ccc3[nH]cc(CCN(C)C)c3c2)sc2ccc(Cl)cc12 [Example 7, N-[3-(2-dimethylaminoethyl)-1H-indol-5-yl]-5-chloro-3-methylbenzo[b]thiophene-2-sulphonamide] | 226 to 227 °C | 0.13 | 103 ± 7.9
9 | CN(C)CCc1c[nH]c2ccc(NS(=O)(=O)c3cccc4ccccc34)cc12 [Example 8, N-[3-(2-dimethylaminoethyl)-1H-indol-5-yl]naphthalene-1-sulphonamide] | 203 to 205 °C | 0.76 | 94.5 ± 7
10 | CN(C)CCc1c[nH]c2ccc(NS(=O)(=O)c3c(Cl)nc4sccn34)cc12 [Example 9, N-[3-(2-dimethylamino-ethyl)-1H-indol-5-yl]-6-chloroimidazo[2,1-b]thiazol-5-sulphonamide] | – | – | 96.8 ± 3.7
11 | Cc1c(S(=O)(=O)Nc2ccc3[nH]cc(C4CCN(C)CC4)c3c2)sc2ccc(Cl)cc12 [Example 11, N-[3-(1-methylpiperidin-4-yl)-1H-indol-5-yl]-5-chloro-3-methylbenzo[b]thiophene-2-sulphonamide hydrochloride] | – | 0.98 | 101
12 | CN1CCC(c2c[nH]c3ccc(NS(=O)(=O)c4cccc5ccccc45)cc23)CC1 [Example 13, N-[3-(1-methylpiperidin-4-yl)-1H-indol-5-yl]naphthalene-1-sulphonamide hydrochloride] | – | – | 98.3
13 | CN1CCC(c2c[nH]c3ccc(NS(=O)(=O)c4ccc(Cl)s4)cc23)CC1 [Example 14, N-[3-(1-methylpiperidin-4-yl)-1H-indol-5-yl]-5-chlorothiophene-2-sulphonamide] | 284 °C (dec.) | – | –
14 | CN1CCC(c2c[nH]c3ccc(NS(=O)(=O)c4ccc(-c5ccccc5)cc4)cc23)CC1 [Example 15, N-[3-(1-methylpiperidin-4-yl)-1H-indol-5-yl]-4-phenylbenzenesulphonamide] | 247 to 248 °C | – | –
15 | CN1CCC(c2c[nH]c3ccc(NS(=O)(=O)c4cccc5cccnc45)cc23)CC1 [Example 16, N-[3-(1-methylpiperidin-4-yl)-1H-indol-5-yl]quinoline-8-sulphonamide] | 280 °C (dec.) | – | –
16 | CCN(CC)CCc1c[nH]c2ccc(NS(=O)(=O)c3ccc4ccccc4c3)cc12 [Example 17, N-[3-(2-diethylaminoethyl)-1H-indol-5-yl]naphthalene-2-sulphonamide] | 172 to 173 °C | – | 102
